In series [1] the test system is TNF-α. Description: LPS-induced TNF-α release in BALB/c mice. Format: in vivo. Particulars: Mus musculus, LPS 1 mg/kg i.p. 1 h after dosing, plasma TNF-α 1.5 h after LPS, read-out: % inhibition (Mean ± SE*); for inhibition in vivo at 100 mg/kg: 100 mg/kg po. Here is the method: The protocol described by Fukuda T. et al (Eur. J. Pharmacol., 391: 317-320, 2000) was followed. BALB/c mice were divided into groups of five to ten each. The test compound, suspended in Tween 80-0.5% carboxy methylcellulose (CMC), with a few drops of Tween 80 as wetting agent if necessary, was administered orally (p.o.) to the mice. One hour later, LPS dissolved in sterile, pyrogen-free saline was administered i.p. at the dose of 1 mg/kg. The negative control group received saline as an i.p injection, while all other groups received LPS. Rolipram (30 mg/kg) was used as the standard drug. One and a half hours later, blood was collected in heparin. Plasma was separated by centrifugation at 13000 rpm (Heraeus Biofuge Pico Centrifuge) at room temperature, aliquoted and stored at −70° C. until analysis.
TNF-α levels in the blood samples were assayed using ELISA and % inhibition of TNF-α release compared to the control group was calculated.

The subject of series [2] is peripheral blood mononuclear cells (PBMC). Description: Cytotoxicity of test compounds in PBMC, cell viability by MTS reagent. Format: cell-based, human. Here is the method:
(§1) TNF-α production by LPS in peripheral blood mononuclear cells (PBMC) was measured according to the method described by Henry et al (J. Bioorg. Med. Chem. Lett., 8: 3335-3340, 1998). Briefly, blood was collected from healthy donors into Potassium EDTA vacutainer tubes (Vacutest Plast/Becton Dickinson). PBMC were isolated using gradient centrifugation in Ficoll-Paque solution (Pharmacia). Isolated PBMC were suspended in RPMI 1640 culture medium (Gibco BRL, Pasley, UK) containing 10% fetal bovine serum (FBS) (Hyclone, Utah, USA), 100 U/ml penicillin (Sigma Chemical Co. St Louis, Mo.) and 100 μg/ml streptomycin (Sigma Chemical Co. St Louis, Mo.). The cell concentration was adjusted to 1×10^6 cells/ml. The viability as determined by trypan blue dye exclusion was uniformly ≧98%. The cell suspension (100 μl) was added to the wells of a 96-well culture plate. Following cell plating, 79 μl of the culture medium and 1 μl of eight different concentrations of the test compounds (final concentration 0.03, 0.1, 0.3, 1, 3, 10, 30, 100 μM) dissolved in DMSO (dimethylsulfoxide, Sigma, Mo., USA) were added to the cells. The final concentration of DMSO was adjusted to 0.5%. The appropriate DMSO concentration was used as control. Rolipram (30 μM) was used as a standard compound. The plates were incubated for 30 min at 37° C. in an atmosphere of 5% CO2. Finally, 20 μl (10 μg/ml) per well of LPS, (Escherchia coli 0127:B8, Sigma Chemical Co., St. Louis, Mo.) was added, for a final concentration of 1 μg/ml. The plates were incubated at 37° C. for 4.5 h in an atmosphere of 5% CO2. To determine the cytotoxicity of the test compounds, the cell viability was assessed using MTS (3-(4,5-dimethylthiazol-2-yl)-5-(3-carboxymethoxyphenyl)-2-(4-sulfonyl)-2H-tetrazolium) reagent (Promega) after 4.5 h of incubation. Supernatants were harvested and assayed for TNF-α by ELISA as described by the manufacturer (R&D Systems, MN, BD Biosciences Pharmingen) or by cytotoxicity bioassay in L929 cells. The 50% inhibitory concentration (IC50) values were calculated by a nonlinear regression method using GraphPad software (Prism 3.03)

In series [3] the test system is TNF-α. Description: Whole blood cell culture assay: LPS-induced TNF-α release (primary screening). Format: cell-based, human. Particulars: Homo sapiens, Whole blood cell; test compound 1 μM; diluted whole blood of healthy donors; LPS 1 μg/ml, 4.5 h; vs DMSO control. Here is the method:
TNF-α production by lipopolysaccharide (LPS) in whole blood was measured according to the method described by Wilson et al (J. Immunol. Methods, 139: 233-240, 1991). Briefly, blood was collected from healthy donors into potassium EDTA vacutainer tubes (Vacutest Plast/Becton Dickinson) and diluted with RPMI 1640 culture medium (Gibco BRL, Pasley, UK) containing 100 U/ml penicillin and 100 μg/ml streptomycin, (100× solution, Sigma Chemical Co. St Louis, Mo.) with no added serum. The white blood cell count was adjusted to 1×10^6 cells/ml and 100 μl/well of the diluted blood was transferred into 96-well culture plates. Following cell plating, 79 μl of culture medium and 1 μl of the test compounds (final concentration 1 μM) dissolved in DMSO (dimethylsulfoxide, Sigma, Mo., USA) was added to the cells. The final concentration of DMSO was adjusted to 0.5%. 1 μl of vehicle (0.5% DMSO) was used as control. Rolipram (100 μM) was used as a standard compound. The plates were incubated for 30 min at 37° C. in an atmosphere of 5% CO2. Finally, 20 μl (10 μg/ml) per well of LPS (Escherchia coli 0127:B8, Sigma Chemical Co., St. Louis, Mo.) was added, for a final concentration of 1 μg/ml. Plates were incubated at 37° C. for 4.5 h in an atmosphere of 5% CO2. Supernatants were harvested and assayed for TNF-α by ELISA as described by the manufacturer (R&D Systems, MN) or by cytotoxicity bioassay in L929 cells. Percent inhibition of TNF-α release in comparison to the control was calculated.

Series [4] deals with TNF-α. Description: LPS-induced TNF-α production in peripheral blood mononuclear cells (secondary screening). Format: cell-based. The settings on record: 4.5 h, TNF-α production in PBMC, LPS 1 μg/ml, ELISA or L929 bioassay. Here is the method: as §1

As to `COC(=O)c1cc(C)c2c(c1)S(=O)(=O)Cc1cc(N3CCNCC3)cc(Cl)c1O2.Cl` [Example 16, 4-Chloro-6-methyl-10,10-dioxo-2-piperazin-1-yl-10,11-dihydro-5-oxa-10lambda*6*-thia-dibenzo[a,d]-cycloheptene-8-carboxylic acid methyl ester hydrochloride], the melting point was 277 to 280 °C. Moreover, the inhibition in vivo at 100 mg/kg in the series on TNF-α [1] is 72.2 ± 3.17%. The “% toxicity (10 μM), 5 h” value in series [2] is given as 62%. The compound further returned an inhibition at 1 µM in the series with TNF-α [3] of 41%. 180 nM corresponded to half-maximal inhibition in the series on TNF-α [4] (IC50).
In the case of `COC(=O)c1cc(C)c2c(c1)S(=O)(=O)Cc1cc(N3CCN(C(=O)c4ccccc4C)CC3)cc(Cl)c1O2` [Example 24, 4-Chloro-6-methyl-2-[4-(2-methyl-benzoyl)-piperazin-1-yl]-10,10-dioxo-10,11-dihydro-5-oxa-10lambda*6*-thia-dibenzo[a,d]cycloheptene-8-carboxylic acid methyl ester], the melting point was 201 to 204 °C. Moreover, the inhibition in vivo at 30 mg/kg in the series with TNF-α [1] (30 mg/kg po) worked out at 17.6 ± 8.72%. In addition, the “% toxicity (10 μM), 5 h” value in series [2] was 03%. For the same compound, the inhibition at 1 µM with TNF-α [3] is 74%. Besides, it took 3870 ± 1420 nM to reach half-maximal inhibition with TNF-α [4] (IC50).
For the compound `COC(=O)c1cc(C)c2c(c1)S(=O)(=O)Cc1cc(N3CCN(C(=O)OCc4ccccc4)CC3)cc(Cl)c1O2` [Example 26, 4-(4-Chloro-8-methoxycarbonyl-6-methyl-10,10-dioxo-10,11-dihydro-5-oxa-10lambda*6*-thia-dibenzo[a,d]cyclohepten-2-yl)-piperazine-1-carboxylic acid benzyl ester], the melting point was 170 to 173 °C. For the same compound, in the series on TNF-α [1], the inhibition in vivo at 100 mg/kg worked out at 68.7 ± 3.68%. Further, the “% toxicity (10 μM), 5 h” value in series [2] was determined as 00%. The compound also had an inhibition at 1 µM in the series with TNF-α [3] of 85%. In addition, half-maximal inhibition in the series with TNF-α [4] (IC50) required 8050 ± 1570 nM.
In the case of `COC(=O)c1cc(C)c2c(c1)S(=O)(=O)Cc1cc(N3CCCNCC3)cc(Cl)c1O2.Cl` [Example 29, 4-Chloro-2-[1,4]diazepan-1yl-6-methyl-10,10-dioxo-10,11-dihydro-5-oxa-10lambda*6*-thia-dibenzo[a,d]cycloheptene-8-carboxylic acid methyl ester hydrochloride], the melting point was 270 °C (dec.). Also, the inhibition in vivo at 100 mg/kg with TNF-α [1] came out at 79.1 ± 0.91%. Also, in series [2], the “% toxicity (10 μM), 5 h” value worked out at 23%. The same compound showed an inhibition at 1 µM in the series on TNF-α [3] of 76%. The same compound yielded an IC50 with TNF-α [4] of 510 nM.

In general, melting point refers to the temperature, or range, at which the solid turns liquid. By inhibition is commonly meant how much of the control response was suppressed. Lower therefore signals a weak effect. For orientation: IC50 means the concentration that inhibits the measured activity by half. Low values mean greater potency in that assay, high ones weaker potency in that assay.

The record behind these values is US7964631B2, “Fused tricyclic compounds as inhibitors of tumor necrosis factor-α” (Piramal Life Sciences Limited, priority 2004, dated 2011).
